Read-outs that look alike come from different tables or passages of the source.
Assays:
[1] = Phase I clinical study, PK; assay type: in vivo, human; details: patients; for Cmax / Tmax / AUC(0-t) / half-life: po, 200 mg/day; for AUC(0-t): read-out: AUC0-24; for half-life: read-out: t½ (converted)
Description: Phase I clinical research study of Compound A is studied as a treatment for patients with prostate cancer. All patients in the study receives Compound A at a once daily oral dose of 200 mg, 400 mg, 600 mg, 800 mg, or 1000 mg. Compound A in this study is provided as an SDD composition with HPMCAS-H. One cycle of treatment is 28 days of dosing.
PK parameters were measured from 4 subjects who were administered at 200 mg/day dose (Table 33). One patient discontinued before day 28 due to disease progression. 2 subjects received both abiraterone and enzalutamide prior treatments. 3 subjects received prior chemotherapy with taxanes.

PC-3 = PC-3 prostate cancer xenograft model; assay type: in vivo; details: PC-3 (non functional AR), intact male mice, 30 mg/kg, Solution, qd28
Description: Compound A's activity was measured in a variety of castrate-sensitive and castrate-resistant prostate cancer (CRPC) xenograft models (Table 32).

[2] = male, human, in vivo, 200 mg/day oral SDD with HPMCAS-H, Day 1, N 4
[3] = male, human, in vivo, 200 mg/day oral SDD with HPMCAS-H, Day 28, N 3

CC(C)(c1ccc(OCc2ccnc(NS(C)(=O)=O)n2)cc1)c1cc(Cl)c(OCCCl)c(C#N)c1 [Compound A, N-(4-((4-(2-(3-chloro-4-(2-chloroethoxy)-5-cyanophenyl)propan-2-yl)phenoxy)methyl)pyrimidin-2-yl)methanesulfonamide]
Cmax [1, 2]: 3300 ng/mL
Tmax [1, 2]: 6.5 h
AUC(0-t) [1, 2]: 53.9 µg·h/mL
half-life [1, 2]: 22 h
Cmax [1, 3]: 8020 ng/mL
Tmax [1, 3]: 6.7 h
AUC(0-t) [1, 3]: 147 µg·h/mL
half-life [1, 3]: 24.8 h
concentration at 28 day ([1]; male, human, in vivo, 200 mg/day oral SDD with HPMCAS-H, Day 28, N 3, read-out: Clast): 4590 ng/mL
Clast ([1]; 200 mg/day oral SDD with HPMCAS-H, Day 1, N 4): 1,808 ng/mL
time to steady state ([1]; repeat QD dosing 200 mg/day): after day 8
TGI (Tumor Growth Inhibition) (PC-3): 0%

Source: patent publication US20240207264A1, “PHARMACEUTICAL COMPOSITIONS COMPRISING INHIBITORS OF THE ANDROGEN RECEPTOR AND USES THEREOF” (ESSA PHARMA INC., priority 2021, published 2024)
